Paper PMC12040169 (PLOS Biology, 2025)

Columns and labels:
[1] = tested on: T1, CTL2-GFP (C. trachomatis L2/434/Bu, GFP-expressing); assay: microbe, parasite or virus in culture; set-up: Intracellular C. trachomatis growth in HeLa cells, bulk GFP fluorescence relative to DMSO; settings: Chlamydia trachomatis, HeLa, 28.5 h; bulk GFP, mean of 2; read-out: % of control remaining
T1 construct: L2/434/Bu, GFP-expressing
Method: MICs were calculated as described above.

[2] = tested on: T2, C. trachomatis L2/434/Bu expressing GFP (CTL2-GFP); assay: microbe, parasite or virus in culture; set-up: C. trachomatis total inclusion area by high-content imaging, normalised to DMSO; settings: Chlamydia trachomatis, HeLa, 28.5 h; total inclusion area; read-out: % of control remaining
T2 construct: L2/434/Bu GFP intracellular growth in HeLa cells
In short: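 Read-out combines bulk fluorescence and imaging: GFP tracks chlamydial growth, resorufin tracks host cell viability. Plates were then fixed and Hoechst-stained so inclusions and nuclei could be imaged and counted per well.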

[3] = in vitro; set-up: Viability of infected HeLa host cells, resazurin conversion, bulk resorufin fluorescence relative to DMSO; settings: human, hela cells; bulk resorufin, mean of 2

Work on `CCNC(=O)N1CC2(CCN(Cc3nc4ccccc4[nH]3)CC2)c2ccccc21` [CBK126693] yielded an activity at 1 µM [1] of 115%, an activity at 5 µM [1] of 120% and an activity at 10 µM [1] of 109%. It also gave an activity at 1 µM [2] of 74.5%, an activity at 5 µM [2] of 89.8% and an activity at 10 µM [2] of 65%. It also gave a viability at 28.5 h, 1 µM [3] of 100%, a viability at 28.5 h, 5 µM [3] of 94.1% and a viability at 28.5 h, 10 µM [3] of 96.7%.

Compound `Cn1c(=O)c2c(ncn2Cc2ccccc2)n(C)c1=O` [CBK133402] has an activity at 1 µM [1] of 119%, an activity at 5 µM [1] of 115% and an activity at 10 µM [1] of 111%. For the same compound, the activity at 1 µM [2] was 100%, the activity at 5 µM [2] was 51.9% and the activity at 10 µM [2] was 66.7%. For the same compound, the viability at 28.5 h, 1 µM [3] was 111%, the viability at 28.5 h, 5 µM [3] was 110% and the viability at 28.5 h, 10 µM [3] was 109%.

`CC(=O)Nc1ccc(-c2cccc(COC3CCN(C(=O)c4ccc(OC(C)C)cc4)CC3)c2)cc1` [CBK149485] showed an activity at 1 µM [1] of 107%, an activity at 5 µM [1] of 30.6% and an activity at 10 µM [1] of 6.64%. For the same compound, the activity at 1 µM [2] was 97.4%, the activity at 5 µM [2] was 32.5% and the activity at 10 µM [2] was 7.93%. It also gave a viability at 28.5 h, 1 µM [3] of 89.4%, a viability at 28.5 h, 5 µM [3] of 92.4% and a viability at 28.5 h, 10 µM [3] of 93.9%.

For `O=C(NCCc1c[nH]c2ccc(Cl)cc12)c1ccc(Cl)cc1Br` [CBK159755], the activity at 1 µM [1] was 100%, the activity at 5 µM [1] was 71.3% and the activity at 10 µM [1] was 19.1%. For the same compound, the activity at 1 µM [2] was 91%, the activity at 5 µM [2] was 79.9% and the activity at 10 µM [2] was 32.4%. It also gave a viability at 28.5 h, 1 µM [3] of 89%, a viability at 28.5 h, 5 µM [3] of 88.9% and a viability at 28.5 h, 10 µM [3] of 93.1%.

With `Cc1cc(Br)ccc1C(=O)NCCc1c[nH]c2ccc(Cl)cc12` [CBK159771] the activity at 1 µM [1] was 95.1%, the activity at 5 µM [1] was 57.5% and the activity at 10 µM [1] was 22.3%. The activity at 1 µM [2] was 116%, the activity at 5 µM [2] was 67.5% and the activity at 10 µM [2] was 47.4%. For the same compound, the viability at 28.5 h, 1 µM [3] was 109%, the viability at 28.5 h, 5 µM [3] was 106% and the viability at 28.5 h, 10 µM [3] was 108%.

With `CC(C)c1ccc(/C=C/C(=O)NCc2ccc(NS(C)(=O)=O)cc2)cc1` [CBK161512] the activity at 1 µM [1] was 138%, the activity at 5 µM [1] was 96.2% and the activity at 10 µM [1] was 43.8%. The activity at 1 µM [2] was 74.8%, the activity at 5 µM [2] was 59.3% and the activity at 10 µM [2] was 20.9%. It also gave a viability at 28.5 h, 1 µM [3] of 101%, a viability at 28.5 h, 5 µM [3] of 104% and a viability at 28.5 h, 10 µM [3] of 94.9%.

`CC(C)(C)c1ccc(N(C2CCNCC2)S(=O)(=O)c2cccc(C(F)(F)F)c2)cc1` [CBK165056T] gave an activity at 1 µM [1] of 103%, an activity at 5 µM [1] of 77.9% and an activity at 10 µM [1] of 24.3%. For the same compound, the activity at 1 µM [2] was 78%, the activity at 5 µM [2] was 50.5% and the activity at 10 µM [2] was 1%. The viability at 28.5 h, 1 µM [3] was 99.8%, the viability at 28.5 h, 5 µM [3] was 107% and the viability at 28.5 h, 10 µM [3] was 45.6%.

With `O=C(OCCC1SC(NC2CC3C=CC2C3)=NC1=O)c1ccc(Cl)c([N+](=O)[O-])c1` (stereo not drawn) [CBK200060T] the activity at 1 µM [1] was 140%, the activity at 5 µM [1] was 129% and the activity at 10 µM [1] was 103%. It also gave an activity at 1 µM [2] of 132%, an activity at 5 µM [2] of 108% and an activity at 10 µM [2] of 68.7%. For the same compound, the viability at 28.5 h, 1 µM [3] was 92.3%, the viability at 28.5 h, 5 µM [3] was 96.8% and the viability at 28.5 h, 10 µM [3] was 88.4%.

With `O=[N+]([O-])c1ccc(-n2cnc3ccccc32)c([N+](=O)[O-])c1` [CBK261120] the activity at 1 µM [1] was 104%, the activity at 5 µM [1] was 40.1% and the activity at 10 µM [1] was 0%. It also gave an activity at 1 µM [2] of 86.4%, an activity at 5 µM [2] of 46.4% and an activity at 10 µM [2] of 2.35%. It also gave a viability at 28.5 h, 1 µM [3] of 107%, a viability at 28.5 h, 5 µM [3] of 88.2% and a viability at 28.5 h, 10 µM [3] of 111%.
